In PubChem BioAssay AID1963985 (Molecular Pharmacology Branch, DTP, NCI, 2024):
Where “and” joins values, the source holds several entries; their conditions need not be identical. Identical values can stand only once. Blank lines part the entries; values can stand above or below the compound they belong to.

Test system: 252836-082-R-J2-PDC tumor spheroids, viability
Test: Anticancer human tumor 252836-082-R-J2-PDC patient-derived head and neck squamous cell carcinoma cell line growth inhibition [PI3K]
Settings: spheroids with HUVEC and MSC; for viability, T/C: stronger effect = lower value
Summary of the method: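 Tumor cells grown as multi-cell spheroids with HUVEC endothelial cells and MSC fibroblast-like stroma were treated with targeted agents combined with inavolisib, alpelisib, duvelisib or copanlisib. Doses fell in half-log steps from near clinical Cmax, else from 10 microM. Viability was measured.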

[1] = curve of first compound, second compound 0.0316 µM
[2] = curve of first compound, second compound 0.1 µM
[3] = curve of first compound, second compound 0.316 µM
[4] = curve of first compound, second compound 1 µM
[5] = curve of first compound, second compound 3.16 µM
[6] = curve of first compound, second compound 10 µM
[7] = second compound 0.0316 µM, first compound 0.0316 µM
[8] = second compound 0.0316 µM, first compound 0.1 µM
[9] = second compound 0.0316 µM, first compound 0.316 µM
[10] = second compound 0.0316 µM, first compound 1 µM
[11] = second compound 0.0316 µM, first compound 3.16 µM
[12] = second compound 0.0316 µM, first compound 10 µM
[13] = second compound 0.1 µM, first compound 0.0316 µM
[14] = second compound 0.1 µM, first compound 0.1 µM
[15] = second compound 0.1 µM, first compound 0.316 µM
[16] = second compound 0.1 µM, first compound 1 µM
[17] = second compound 0.1 µM, first compound 3.16 µM
[18] = second compound 0.1 µM, first compound 10 µM
[19] = second compound 0.316 µM, first compound 0.0316 µM
[20] = second compound 0.316 µM, first compound 0.1 µM
[21] = second compound 0.316 µM, first compound 0.316 µM
[22] = second compound 0.316 µM, first compound 1 µM
[23] = second compound 0.316 µM, first compound 3.16 µM
[24] = second compound 0.316 µM, first compound 10 µM
[25] = second compound 1 µM, first compound 0.0316 µM
[26] = second compound 1 µM, first compound 0.1 µM
[27] = second compound 1 µM, first compound 0.316 µM
[28] = second compound 1 µM, first compound 1 µM
[29] = second compound 1 µM, first compound 3.16 µM
[30] = second compound 1 µM, first compound 10 µM
[31] = second compound 3.16 µM, first compound 0.0316 µM
[32] = second compound 3.16 µM, first compound 0.1 µM
[33] = second compound 3.16 µM, first compound 0.316 µM
[34] = second compound 3.16 µM, first compound 1 µM
[35] = second compound 3.16 µM, first compound 3.16 µM
[36] = second compound 3.16 µM, first compound 10 µM
[37] = second compound 10 µM, first compound 0.0316 µM
[38] = second compound 10 µM, first compound 0.1 µM
[39] = second compound 10 µM, first compound 0.316 µM
[40] = second compound 10 µM, first compound 1 µM
[41] = second compound 10 µM, first compound 3.16 µM
[42] = second compound 10 µM, first compound 10 µM
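Also: spheroids exposed to agents for seven days before readout.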
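For viability, T/C in this document: percent of vehicle DMSO control viability so 100% = untreated growth.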

Compound: C[C@@H](NC(=O)c1ncnc(N)c1Cl)c1ncc(C(=O)Nc2cc(C(F)(F)F)c(Cl)cn2)s1 + Cc1nc(NC(=O)N2CCCC2C(N)=O)sc1-c1ccnc(C(C)(C)C(F)(F)F)c1
IC50 [1]: > 10 µM | IC50 [2]: > 10 µM | IC50 [3]: > 10 µM | IC50 [4]: > 10 µM | IC50 [5]: < 0.0316 µM | IC50 [6]: < 0.0316 µM | viability, T/C [7]: 95.5% | viability, T/C [8]: 84.1% | viability, T/C [9]: 88.9% | viability, T/C [10]: 81.2% | viability, T/C [11]: 76.9% | viability, T/C [12]: 82.5% | viability, T/C [13]: 79.7% | viability, T/C [14]: 70.8% | viability, T/C [15]: 85.2% | viability, T/C [16]: 74.1% | viability, T/C [17]: 85.9% | viability, T/C [18]: 74.1% | viability, T/C [19]: 72% | viability, T/C [20]: 79.2% | viability, T/C [21]: 69.8% | viability, T/C [22]: 78.4% | viability, T/C [23]: 74.7% | viability, T/C [24]: 69.7% | viability, T/C [25]: 58.6% | viability, T/C [26]: 62% | viability, T/C [27]: 61.9% | viability, T/C [28]: 54.9% | viability, T/C [29]: 61.3% | viability, T/C [30]: 50.8% | viability, T/C [31]: 40% | viability, T/C [32]: 48.6% | viability, T/C [33]: 43.2% | viability, T/C [34]: 42.5% | viability, T/C [35]: 42.4% | viability, T/C [36]: 42.9% | viability, T/C [37]: 35.2% | viability, T/C [38]: 39.6% | viability, T/C [39]: 35.2% | viability, T/C [40]: 30.6% | viability, T/C [41]: 23.4% | viability, T/C [42]: 12.6%

Compound: CNC(=O)c1ccc(N2C(=S)N(c3ccc(C#N)c(C(F)(F)F)c3)C(=O)C2(C)C)cc1F + CC(Nc1ccc2c(c1)OCCn1cc(N3C(=O)OCC3C(F)F)nc1-2)C(N)=O
IC50 (curve of first compound, second compound 0.00316 µM): > 10 µM | IC50 (curve of first compound, second compound 0.01 µM): > 10 µM | IC50 [1]: > 10 µM | IC50 [2]: > 10 µM | IC50 [3]: > 10 µM | IC50 [4]: < 0.0316 µM | viability, T/C (second compound 0.00316 µM, first compound 0.0316 µM): 97% | viability, T/C (second compound 0.00316 µM, first compound 0.1 µM): 84.2% | viability, T/C (second compound 0.00316 µM, first compound 0.316 µM): 92.5% | viability, T/C (second compound 0.00316 µM, first compound 1 µM): 91.6% | viability, T/C (second compound 0.00316 µM, first compound 3.16 µM): 102% | viability, T/C (second compound 0.00316 µM, first compound 10 µM): 84.1% | viability, T/C (second compound 0.01 µM, first compound 0.0316 µM): 96.5% | viability, T/C (second compound 0.01 µM, first compound 0.1 µM): 99.9% | viability, T/C (second compound 0.01 µM, first compound 0.316 µM): 82% | viability, T/C (second compound 0.01 µM, first compound 1 µM): 89.1% | viability, T/C (second compound 0.01 µM, first compound 3.16 µM): 103% | viability, T/C (second compound 0.01 µM, first compound 10 µM): 98% | viability, T/C [7]: 90.8% | viability, T/C [8]: 81.7% | viability, T/C [9]: 80.2% | viability, T/C [10]: 77.1% | viability, T/C [11]: 75.1% | viability, T/C [12]: 78.9% | viability, T/C [13]: 68.9% | viability, T/C [14]: 69.5% | viability, T/C [15]: 73.7% | viability, T/C [16]: 66% | viability, T/C [17]: 61.5% | viability, T/C [18]: 67.9% | viability, T/C [19]: 55.4% | viability, T/C [20]: 58.3% | viability, T/C [21]: 53% | viability, T/C [22]: 51.9% | viability, T/C [23]: 61.9% | viability, T/C [24]: 52.3% | viability, T/C [25]: 46.3% | viability, T/C [26]: 44% | viability, T/C [27]: 43.2% | viability, T/C [28]: 50.5% | viability, T/C [29]: 51.4% | viability, T/C [30]: 45.8%

Compound: CC1(C)CCC(Nc2ncc(C(F)(F)F)c(-c3c[nH]c4c(P(C)(C)=O)c(C#N)ccc34)n2)CN1 (stereo not given) + Cc1nc(NC(=O)N2CCCC2C(N)=O)sc1-c1ccnc(C(C)(C)C(F)(F)F)c1
IC50 [1]: < 0.0316 µM | IC50 [2]: < 0.0316 µM | IC50 [3]: < 0.0316 µM | IC50 [4]: < 0.0316 µM | IC50 [5]: < 0.0316 µM | IC50 [6]: < 0.0316 µM | viability, T/C [7]: 39.2% | viability, T/C [8]: 27.6% | viability, T/C [9]: 33.3% | viability, T/C [10]: 30.5% | viability, T/C [11]: 38.8% | viability, T/C [12]: 6.62% | viability, T/C [13]: 36.2% | viability, T/C [14]: 33.4% | viability, T/C [15]: 32.2% | viability, T/C [16]: 30.9% | viability, T/C [17]: 38.4% | viability, T/C [18]: 7.19% | viability, T/C [19]: 28.8% | viability, T/C [20]: 27.6% | viability, T/C [21]: 28.4% | viability, T/C [22]: 27.2% | viability, T/C [23]: 32.8% | viability, T/C [24]: 6.05% | viability, T/C [25]: 27.4% | viability, T/C [26]: 26.9% | viability, T/C [27]: 28.2% | viability, T/C [28]: 25.9% | viability, T/C [29]: 23.1% | viability, T/C [30]: 3.48% | viability, T/C [31]: 23.1% | viability, T/C [32]: 21.1% | viability, T/C [33]: 22.7% | viability, T/C [34]: 24% | viability, T/C [35]: 20.9% | viability, T/C [36]: 2.65% | viability, T/C [37]: 15.8% | viability, T/C [38]: 18.1% | viability, T/C [39]: 19.4% | viability, T/C [40]: 17.7% | viability, T/C [41]: 12.7% | viability, T/C [42]: 1.03%

Now from value to compound, other results behind:

IC50 (curve of compound): 850 nM [middle of 4 runs]
Compound: CC(C)NCC(C(=O)N1CCN(c2ncnc3c2C(C)CC3O)CC1)c1ccc(Cl)cc1 (stereo not given)
viability, T/C (compound 0.0316 µM): 84.2% [middle of 4 runs] | viability, T/C (compound 0.1 µM): 96.8% [middle of 4 runs] | viability, T/C (compound 0.316 µM): 87.8% (2×) and 61.1% and 70.6% | viability, T/C (compound 1 µM): 45.1% [middle of 4 runs] | viability, T/C (compound 3.16 µM): 31.7% [middle of 4 runs] | viability, T/C (compound 10 µM): 19.7% [middle of 4 runs]

IC50 [1]: > 10 µM | IC50 [2]: > 10 µM | IC50 [3]: > 10 µM | IC50 [4]: > 10 µM | IC50 [5]: > 10 µM | IC50 [6]: > 10 µM
Compound: CC(Cn1ccc(-c2ccc(C#N)c(Cl)c2)n1)NC(=O)c1cc(C(C)O)[nH]n1 (stereo not given) + CC(Nc1ncnc2nc[nH]c12)c1cc2cccc(Cl)c2c(=O)n1-c1ccccc1
viability, T/C [7]: 105% | viability, T/C [8]: 78.9% | viability, T/C [9]: 96.6% | viability, T/C [10]: 87% | viability, T/C [11]: 81.7% | viability, T/C [12]: 76.3% | viability, T/C [13]: 86.8% | viability, T/C [14]: 89.3% | viability, T/C [15]: 82.6% | viability, T/C [16]: 83% | viability, T/C [17]: 94.5% | viability, T/C [18]: 70.2% | viability, T/C [19]: 83.2% | viability, T/C [20]: 78.5% | viability, T/C [21]: 88.9% | viability, T/C [22]: 88.8% | viability, T/C [23]: 85.5% | viability, T/C [24]: 85.9% | viability, T/C [25]: 92.2% | viability, T/C [26]: 76.3% | viability, T/C [27]: 89.6% | viability, T/C [28]: 80.5% | viability, T/C [29]: 77% | viability, T/C [30]: 70.3% | viability, T/C [31]: 74% | viability, T/C [32]: 73.7% | viability, T/C [33]: 79.2% | viability, T/C [34]: 72.5% | viability, T/C [35]: 75% | viability, T/C [36]: 74.2% | viability, T/C [37]: 60.9% | viability, T/C [38]: 55.3% | viability, T/C [39]: 73.4% | viability, T/C [40]: 55.4% | viability, T/C [41]: 65.4% | viability, T/C [42]: 56.8%
